According to publication PMC8975978, “Bioassay-guided isolation of cytotoxic constituents from the flowers of Aquilaria sinensis” (Natural Products and Bioprospecting, 2022):
Converted amounts (≈) assume the structure as drawn. Read-outs that look alike come from different tables or passages of the source.

Tests used:
[1] = tested on: human lung adenocarcinoma SPC-A-1 cells; test: MTS cytotoxicity assay, SPC-A-1; format: cell-based; settings: read-out: IC50
Protocol: (§1) It had better inhibition against lung cancer cell lines than against other cancer cell lines (Table 1). Thus, the next bioactivity-guided separations were conducted according to the cytotoxicities of the fractions against lung cancer cell lines (A-549, NCI-H520, and SPC-A-1), as well as normal BEAS-2B cells and paclitaxel-resistant lung cancer A549/Taxol cells.
(§2) The cytotoxicity activities were evaluated by MTS assay as previously described.

[2] = tested on: human lung squamous cell carcinoma NCI-H520 cells; test: MTS cytotoxicity assay, NCI-H520; format: cell-based; settings: read-out: IC50
Protocol: as §1, §2

[3] = tested on: human lung adenocarcinoma A549 cells; test: MTS cytotoxicity assay, A549; format: cell-based; settings: read-out: IC50
Protocol: as §1, §2

[4] = tested on: human normal bronchial epithelial BEAS-2B cells; test: MTS cytotoxicity assay, normal BEAS-2B; format: cell-based; settings: read-out: IC50
Protocol: as §1, §2

[5] = tested on: paclitaxel-resistant A549 (A549/Taxol) cells; test: MTS cytotoxicity assay, A549/Taxol; format: cell-based, human; settings: read-out: IC50
Protocol: as §1, §2

[6] = tested on: human cervical cancer HeLa cells; test: MTS cytotoxicity assay, HeLa; format: cell-based; settings: Homo sapiens; Table 1, HeLa; read-out: IC50
Protocol: as §1, §2

[7] = tested on: human neuroblastoma SH-SY5Y cells; test: MTS cytotoxicity assay, SH-SY5Y; format: cell-based; settings: Homo sapiens; Table 1, SH-SY5Y; read-out: IC50
Protocol: as §1, §2

[8] = tested on: human ovarian carcinoma SK-OV-3 cells; test: MTS cytotoxicity assay, SK-OV-3; format: cell-based; settings: Homo sapiens; Table 1, SK-OV-3; read-out: IC50
Protocol: as §1, §2

[9] = tested on: human T-cell leukemia MT4 cells; test: MTS cytotoxicity assay, MT4; format: cell-based; settings: Homo sapiens; Table 1, MT4; read-out: IC50
Protocol: as §1, §2

[10] = tested on: human prostate cancer PC-3 cells; test: MTS cytotoxicity assay, PC-3; format: cell-based; settings: Homo sapiens; Table 1, PC-3; read-out: IC50
Protocol: as §1, §2

[11] = tested on: human hepatoma SMMC-7721 cells; test: MTS cytotoxicity assay, SMMC-7721; format: cell-based; settings: Homo sapiens; Table 1, SMMC-7721; read-out: IC50
[12] = tested on: human breast cancer MDA-MB-231 cells; test: MTS cytotoxicity assay, MDA-MB-231; format: cell-based; settings: Homo sapiens; Table 1, MDA-MB-231; read-out: IC50
Protocol: as §1, §2

[13] = tested on: human small cell lung cancer NCI-H446 cells; test: MTS cytotoxicity assay, NCI-H446; format: cell-based; settings: Homo sapiens; Table 1, NCI-H446; read-out: IC50
Protocol: as §1, §2

[14] = tested on: human large cell lung carcinoma NCI-H460 cells; test: MTS cytotoxicity assay, NCI-H460; format: cell-based; settings: Homo sapiens; Table 1, NCI-H460; read-out: IC50
Protocol: as §1, §2

[15] = tested on: human colon cancer SW-480 cells; test: MTS cytotoxicity assay, SW480; format: cell-based; settings: Homo sapiens; Table 1, SW480; read-out: IC50
Protocol: as §1, §2

[16] = tested on: human breast cancer MCF-7 cells; test: MTS cytotoxicity assay, MCF-7; format: cell-based; settings: Homo sapiens, MCF7; Table 1, MCF-7; read-out: IC50
Protocol: as §1, §2

[17] = tested on: human leukemia HL-60 cells; test: MTS cytotoxicity assay, HL-60; format: cell-based; settings: Homo sapiens; Table 1, HL-60; read-out: IC50
Protocol: as §1, §2

[18] = tested on: human colon cancer Caco2 cells; test: MTS cytotoxicity assay, Caco2; format: cell-based; settings: Caco-2, Table 1, Caco2
[19] = tested on: SK-MEL cells; set-up: method as in PMID 28754541; settings: cited from earlier work
[20] = tested on: SPC-A-1, NCI-H520, A549 and A549/Taxol cell lines; test: MTS cytotoxicity assay, four tested lung cancer cell lines together; format: cell-based, human; settings: four tested cancer cell lines taken together (SPC-A-1, NCI-H520, A549, A549/Taxol)
Protocol: Thus, the next bioactivity-guided separations were conducted according to the cytotoxicities of the fractions against lung cancer cell lines (A-549, NCI-H520, and SPC-A-1), as well as normal BEAS-2B cells and paclitaxel-resistant lung cancer A549/Taxol cells.
Isolates 1–6 were evaluated for their cytotoxicities against SPC-A-1, NCI-H520, A549, A549/Taxol, and BEAS-2B cell lines (Table 5).
as §2

[21] = Homo sapiens, SPCA1, Table 5, SPC-A-1
[22] = Homo sapiens, Table 5, NCI-H520
[23] = Homo sapiens, BEAS-2B, Table 5, BEAS-2B normal cells
[24] = Homo sapiens, A549/Taxol, Table 5, A549/Taxol

Compound COc1ccc(CCc2cc(=O)c3cc(OC)c(O)cc3o2)cc1 [Compound 6, 7-hydroxy-6-methoxy-2-[2-(4-methoxyphenyl)ethyl]-4H-1-benzopyran-4-one] has an IC50 [1, 21] of 1130 ± 30 nM, an IC50 [2, 22] of 1840 ± 160 nM and an IC50 ([3]; Homo sapiens, Table 5, A549) of 1520 ± 60 nM. For the same compound, the IC50 [4, 23] was over 40000 nM and the IC50 [5, 24] was 910 ± 10 nM.
With CC(=O)O[C@H]1C(=O)[C@@]2(C)[C@H]([C@H](OC(=O)c3ccccc3)[C@]3(O)C[C@H](OC(=O)[C@H](O)[C@@H](NC(=O)c4ccccc4)c4ccccc4)C(C)=C1C3(C)C)[C@]1(OC(C)=O)CO[C@@H]1C[C@@H]2O [Paclitaxel] the IC50 ([1]; Homo sapiens, SPCA1, Table 1, SPC-A-1) was under 0.007 µg/mL, the IC50 [1, 21] was under 8 nM and the IC50 ([2]; Homo sapiens, Table 1, NCI-H520) was under 0.007 µg/mL. It also gave an IC50 [2, 22] of under 8 nM, an IC50 ([3]; Homo sapiens, Table 1, A549) of under 0.007 µg/mL and an IC50 ([3]; Homo sapiens, Table 5, A549) of under 8 nM. It also gave an IC50 [6] of under 0.007 µg/mL, an IC50 [7] of 0.008 ± 0.001 µg/mL (≈ 9.37 nM) and an IC50 [8] of under 0.007 µg/mL. For the same compound, the IC50 [9] was under 0.008 µg/mL, the IC50 [10] was under 0.007 µg/mL and the IC50 [11] was 0.15 ± 0.02 µg/mL (≈ 176 nM). It also gave an IC50 [12] of under 0.007 µg/mL, an IC50 [13] of under 0.007 µg/mL and an IC50 [14] of under 0.007 µg/mL. It also gave an IC50 [15] of under 0.007 µg/mL, an IC50 [16] of under 0.007 µg/mL and an IC50 [17] of under 0.007 µg/mL. The IC50 [18] was 0.02 ± 0.02 µg/mL (≈ 23.4 nM), the IC50 ([4]; Homo sapiens, BEAS-2B, Table 1, BEAS-2B normal cells) was 3.66 ± 0.3 µg/mL and the IC50 ([4]; Homo sapiens, BEAS-2B, Table 2, BEAS-2B normal cells) was 1.85 ± 0.19 µg/mL. The IC50 ([4]; Homo sapiens, BEAS-2B, Table 3, BEAS-2B normal cells) was 2.04 ± 0.11 µg/mL, the IC50 ([4]; Homo sapiens, BEAS-2B, Table 4, BEAS-2B normal cells) was 1.94 ± 0.11 µg/mL and the IC50 [4, 23] was over 5000 nM. For the same compound, the IC50 ([5]; Homo sapiens, A549/Taxol, Table 2, A549/Taxol) was 0.54 ± 0.09 µg/mL, the IC50 ([5]; Homo sapiens, A549/Taxol, Table 3, A549/Taxol) was 1.45 ± 0.12 µg/mL and the IC50 ([5]; Homo sapiens, A549/Taxol, Table 4, A549/Taxol) was 0.96 ± 0.05 µg/mL. The IC50 [5, 24] was 1800 ± 130 nM.
For aquilaside B, the IC50 [19] is listed as 17000 nM.
In the case of aquilaside C, the IC50 [19] is listed as 12000 nM.
cucurbitacin B [Compound 4] gave an IC50 ([1]; Table 5, SPC-A-1) of 16 nM, an IC50 ([2]; Table 5, NCI-H520) of 2 nM and an IC50 ([3]; Table 5, A549) of 30 nM. For the same compound, the IC50 ([4]; Table 5, BEAS-2B normal cells) was 14400 ± 1360 nM, the IC50 ([5]; Table 5, A549/Taxol) was 7 ± 1 nM and the IC50 [20] was at most 30 nM.
